“Also recorded” adds a separate entry of the source.
Key:
Assay in all cases: Histone peptide microarray
Format in all cases: binding, human
AIRE (PP) = details: GST-tagged AIRE (PP); sheet Array Heatmap; each array performed twice, total n = 4
Method in brief: (§1)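 GST-tagged PHD readers, 0.5 μM, probed on a microarray of 293 synthetic histone peptides carrying single or combinatorial PTMs (optimized Petell protocol). Signals are averaged over 4 replicates and expressed as relative binding.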

BAZ2B = details: GST-tagged BAZ2B; sheet Array Heatmap; each array performed twice, total n = 4
Method in brief: as §1

BPTF (PB) = details: GST-tagged BPTF (PB = PHD + Bromodomain); sheet Array Heatmap; each array performed twice, total n = 4
Method in brief: as §1

CHD4 (PPCC) = details: GST-tagged CHD4 (PPCC = Dual PHD + Dual Chromodomain); sheet Array Heatmap; each array performed twice, total n = 4
Method in brief: as §1

CHD5 (PCC) = details: GST-tagged CHD5 (PCC = PHD + Dual Chromodomain); sheet Array Heatmap; each array performed twice, total n = 4
Method in brief: as §1

CHD5 (PPCC) = details: GST-tagged CHD5 (PPCC = Dual PHD + Dual Chromodomain); sheet Array Heatmap; each array performed twice, total n = 4
Method in brief: as §1

DIDO1 = details: GST-tagged DIDO1; sheet Array Heatmap; each array performed twice, total n = 4
Method in brief: as §1

DPF2 (PPC2W2) = details: GST-tagged DPF2 (PPC2W2 = Dual PHD + C2W2-type Zn-finger); sheet Array Heatmap; each array performed twice, total n = 4
Method in brief: as §1

ING2 = details: GST-tagged ING2; sheet Array Heatmap; each array performed twice, total n = 4
Method in brief: as §1

ING3 = details: GST-tagged ING3; sheet Array Heatmap; each array performed twice, total n = 4
Method in brief: as §1

ING4 = details: GST-tagged ING4; sheet Array Heatmap; each array performed twice, total n = 4
Method in brief: as §1

ING5 = details: GST-tagged ING5; sheet Array Heatmap; each array performed twice, total n = 4
Method in brief: as §1

KDM4C (TTP) = details: GST-tagged KDM4C (TTP = Tandem Tudor domain + PHD); sheet Array Heatmap; each array performed twice, total n = 4
Method in brief: as §1

KDM5A (1) = details: GST-tagged KDM5A (1); sheet Array Heatmap; each array performed twice, total n = 4
Method in brief: as §1

KDM5B (1) = details: GST-tagged KDM5B (1); sheet Array Heatmap; each array performed twice, total n = 4
Method in brief: as §1

KDM5B (3) = details: for Array Heatmap signal (histone peptide microarray): GST-tagged KDM5B (3), sheet Array Heatmap, each array performed twice, total n = 4
Method in brief: as §1

MLL5 = details: for Array Heatmap signal (histone peptide microarray): GST-tagged MLL5, sheet Array Heatmap, each array performed twice, total n = 4
Method in brief: as §1

PHF13 = details: GST-tagged PHF13; sheet Array Heatmap; each array performed twice, total n = 4
Method in brief: as §1

PHF21A = details: GST-tagged PHF21A; sheet Array Heatmap; each array performed twice, total n = 4
Method in brief: as §1

PHF23 = details: GST-tagged PHF23; sheet Array Heatmap; each array performed twice, total n = 4
Method in brief: as §1

PHF2 = details: GST-tagged PHF2; sheet Array Heatmap; each array performed twice, total n = 4
Method in brief: as §1

PHF8 = details: GST-tagged PHF8; sheet Array Heatmap; each array performed twice, total n = 4
Method in brief: as §1

PHRF1 (RP) = details: GST-tagged PHRF1 (RP); sheet Array Heatmap; each array performed twice, total n = 4
Method in brief: as §1

RAG2 = details: GST-tagged RAG2; sheet Array Heatmap; each array performed twice, total n = 4
Method in brief: as §1

SP140L = details: GST-tagged SP140L; sheet Array Heatmap; each array performed twice, total n = 4
Method in brief: as §1

TAF3 = details: GST-tagged TAF3; sheet Array Heatmap; each array performed twice, total n = 4
Method in brief: as §1

Substance	Array Heatmap signal (histone peptide microarray) (AIRE (PP))	Array Heatmap signal (histone peptide microarray) (BAZ2B)	Array Heatmap signal (histone peptide microarray) (BPTF (PB))	Array Heatmap signal (histone peptide microarray) (CHD4 (PPCC))	Array Heatmap signal (histone peptide microarray) (CHD5 (PCC))	Array Heatmap signal (histone peptide microarray) (CHD5 (PPCC))	Array Heatmap signal (histone peptide microarray) (DIDO1)	Array Heatmap signal (histone peptide microarray) (DPF2 (PPC2W2))	Array Heatmap signal (histone peptide microarray) (ING2)	Array Heatmap signal (histone peptide microarray) (ING3)	Array Heatmap signal (histone peptide microarray) (ING4)	Array Heatmap signal (histone peptide microarray) (ING5)	Array Heatmap signal (histone peptide microarray) (KDM4C (TTP))	Array Heatmap signal (histone peptide microarray) (KDM5A (1))	Array Heatmap signal (histone peptide microarray) (KDM5B (1))	Array Heatmap signal (histone peptide microarray) (KDM5B (3))	Array Heatmap signal (histone peptide microarray) (MLL5)	Array Heatmap signal (histone peptide microarray) (PHF13)	Array Heatmap signal (histone peptide microarray) (PHF21A)	Array Heatmap signal (histone peptide microarray) (PHF23)	further results
H3K4me2: H3 1-20 [Peptide H3K4me2]	0.5318	0.5231	0.3788	0.5852	0.8359	0.6021	0.6829	0.7084	0.6539	0.5315	0.5223	0.3985	0.5984	0.5028	0.6566	0.6323	0.5972	0.6844	0.4967	0.6135	Array Heatmap signal (histone peptide microarray) (PHF2): 0.5474; Array Heatmap signal (histone peptide microarray) (PHF8): 0.5074; Array Heatmap signal (histone peptide microarray) (PHRF1 (RP)): 0.5228; Array Heatmap signal (histone peptide microarray) (RAG2): 0.3888; Array Heatmap signal (histone peptide microarray) (SP140L): 0.3615; Array Heatmap signal (histone peptide microarray) (TAF3): 0.3841
H3K4me3: H3 1-20 [Peptide H3K4me3]	0.3854	0.4249	0.3538	0.5281	0.6826	0.5167	0.7775	0.5958	0.6884	0.4876	0.4513	0.3493	0.4579	0.4187	0.5666	0.4784	0.668	0.5859	0.4238	0.678	binding preference (KDM5B (3); peptide microarray, reader 0.5 μM, n = 4, comparison between K9ac + K18ac peptides): showed such a preference on peptide microarrays; binding preference (MLL5; peptide microarray, reader 0.5 μM, n = 4): strong preference for H3K4me3 over the un-, mono-, or di-methylated H3K4 peptides; also recorded: specific reader for H3K4me3; Array Heatmap signal (histone peptide microarray) (PHF2): 0.8051; Array Heatmap signal (histone peptide microarray) (PHF8): 0.4526; Array Heatmap signal (histone peptide microarray) (PHRF1 (RP)): 0.4656; Array Heatmap signal (histone peptide microarray) (RAG2): 0.3757; Array Heatmap signal (histone peptide microarray) (SP140L): 0.3018; Array Heatmap signal (histone peptide microarray) (TAF3): 0.3678

— publication PMC6979384, “Characterization of the plant homeodomain (PHD) reader family for their histone tail interactions” (Epigenetics & Chromatin, 2020)
